Experimental data reported in patent US20150057350A1, “FIBROSIS BIOMARKERS AND METHODS OF USING SAME” (ABBOTT LABORATORIES, priority 2013, published 2015).

Key:
Type in all cases: in vivo
[1] = tested on: Matrix Metalloproteinase-10 (MMP-10); experiment: 10-day bed rest study in healthy elderly subjects: circulating MMP-10 (RBM Human DiscoveryMAP, serum)
Text: (§1) The following inclusion criteria were verified at screening: male or female ≧60 to ≦79 years of age; body mass index (BMI) ≧20 but ≦35; ambulatory with a Short Performance Physical Battery (SPPB) score of ≧9 (fully functional with no mobility limitations); and compliance with prescribed activity level. Exclusion criteria ruled out subjects who had undergone recent major surgery, had active malignancy (excepting basal or squamous cell skin carcinoma or carcinoma in situ of the uterine cervix); history of Deep Vein Thrombosis (DVT) or other hypercoagulation disorders; refractory anemia; history of diabetes or fasting blood glucose value >126 mg/dL; presence of partial or full artificial limb; kidney disease or serum creatinine >1.4 mg/dL; evidence of cardiovascular disease assessed during resting or exercise EKG; untreated hypothyroidism; liver disease; chronic or acute GI disease; uncontrolled severe diarrhea, nausea or vomiting; were actively pursuing weight loss; were enrolled in other clinical trials; could not refrain from smoking over the bed rest study period; or could not discontinue anticoagulant therapy over bed rest period. Potential subjects were also excluded if they were taking any medications known to affect protein metabolism (e.g., progestational agents, steroids, growth hormone, dronabinol, marijuana, HMB, free amino acid supplements, dietary supplements to aid weight loss).
(§2) The 24 healthy subjects initially involved in the study were randomized into two groups. Subjects in the treatment group received two β-hydroxy-β-methylbutyrate (HMB) sachets containing 1.5 grams of Ca-HMB (TSI, Salt Lake City, Utah), 4 grams of maltodextrin, and 200 milligrams of calcium with additional sweetener and flavoring agents. Subjects in the control group received two control sachets that were identical to the HMB sachets with the exclusion Ca-HMB. This study was a double-blinded study. Neither the investigators nor the subjects were informed of the identity of any of the study products during the clinical portion of the study. Subjects were instructed to consume a sachet twice daily by mixing a sachet into a non-caloric, non-caffeinated, non-carbonated, non-milk-based beverage of their choice. Treatment with HMB or Control was initiated 5 days prior to bed rest and was continued until the end of the rehabilitation period.
(§3) For diet stabilization over the pre-bed rest and bed rest periods, subjects were fed a metabolically controlled diet providing the RDA for protein intake (0.8 g protein/kg body weight per day). Total calorie needs were estimated using the Harris-Benedict equation for resting energy expenditure according to the following equation: For women=[655+(9.56×body weight in kg)+(1.85×height in cm)−(4.68×age in years)]×AF, and, For men=[66+(13.7×body weight in kg)+(5×height in cm)−([…]]×AF, where AF=activity factor of 1.6 for the ambulatory period and 1.35 for the bed rest period. Given the total calorie and protein intakes, the remainder of the diet was manipulated to keep the non-protein calories at about 60% from carbohydrates and 40% from fat. Water was provided ad libitum.
(§4) After a diet stabilization of 5 days (ambulatory period), subjects remained in bed continuously for 10 days. While confined to bed rest, subjects were allowed to use the bedside commode for urination or were taken in a wheelchair for toileting. Subjects were given the option of taking a sponge bath or showering in a wheelchair. Prophylactic measures were taken to detect and prevent deep vein thrombosis including a blood d-dimer test followed by an ultrasound examination if d-dimer test was positive, passive range of motion exercise during bed rest, the use of TED hose and SCD over the bed rest period. Subjects were offered medication to help mitigate reflux problems associated with being supine. Subjects were constantly monitored by nursing staff and received a daily physical examination by the study physician. […]

development of fibrosis = experiment: 10-day bed rest study: all 3 fibrosis markers taken together; details: prolonged period of physical inactivity, human subject
Text: as §1, with “Potential subjects were also excluded if they were taking any medications known to affect protein metabolism (e.g., progestational agents, steroids, growth hormone, dronabinol, marijuana, HMB, free amino acid supplements, dietary supplements to aid weight loss).” left out
(§5) After a diet stabilization of 5 days (ambulatory period), subjects remained in bed continuously for 10 days. […] Subjects were constantly monitored by nursing staff and received a daily physical examination by the study physician. […]

[2] = tested on: Matrix Metalloproteinase-3 (MMP-3); experiment: 10-day bed rest study in healthy elderly subjects: circulating MMP-3 (RBM Human DiscoveryMAP, serum)
Text: as §1, §2, §3, §4

[3] = tested on: Matrix Metalloproteinase-1 (MMP-1); experiment: 10-day bed rest study in healthy elderly subjects: circulating MMP-1 (RBM Human DiscoveryMAP, serum)
Text: as §1, §2, §3, §5

[4] = after 10 days of bed rest, 10 HMB treated subjects
[5] = post- minus pre-bed rest, 10 days, n = 10, ANCOVA vs control p < 0.0001
[6] = serum, Day 1 of bed rest, after 5 days of Ca-HMB 1.5 g sachet twice daily, n = 10
[7] = serum, end of 10 days bed rest, Ca-HMB 1.5 g sachet twice daily, n = 10

Q: What does the source list for `CC(C)(O)CC(=O)O` [HMB, β-hydroxy-β-methylbutyric acid]?
A: average decrease in blood levels of MMP-10 [1, 4]: 0.09 ng/mL; decrease in blood levels of MMP-10 [1, 4]: 12%; MMP-10 Change [1, 5]: -0.09 ± 0.04 ng/mL; effect on the decrease in blood levels of MMP-10 that occurs in untreated control subjects ([1]; prolonged bed rest, vs control): reduces or attenuates the decrease; MMP-10 Pre-bed rest Mean [1, 6]: 0.60 ng/mL; MMP-10 Post-bed rest Mean [1, 7]: 0.51 ng/mL; effect against development of fibrosis, all 3 markers taken together (development of fibrosis): protective effect; average decrease in blood levels of MMP-3 [2, 4]: 2.71 ng/mL; change (decrease) in blood levels of MMP-3 [2, 4]: 25%; MMP-3 Change ([2]; post- minus pre-bed rest, 10 days, n = 10, ANCOVA vs control p = 0.0007): -2.71 ± 0.78 ng/mL; effect on the decrease in blood levels of MMP-3 that occurs in untreated control subjects ([2]; prolonged bed rest, vs control): reduces or attenuates the decrease; MMP-3 Pre-bed rest Mean [2, 6]: 10.90 ng/mL; MMP-3 Post-bed rest Mean [2, 7]: 8.19 ng/mL; average increase in circulating levels of MMP-1 [3, 4]: 2.17 ng/mL; MMP-1 Change [3, 5]: 2.17 ± 1.06 ng/mL; effect on the increase in blood levels of MMP-1 that occurs in untreated control subjects ([3]; prolonged bed rest, vs control): enhances the increase; MMP-1 Pre-bed rest Mean [3, 6]: 11.29 ng/mL; MMP-1 Post-bed rest Mean [3, 7]: 13.46 ng/mL
